From patent EP4617268A1, “QUINAZOLINE DERIVATIVES” (Kyoto University, priority 2022, dated 2024)

Tested on: IKBKAP-FD exon 20 inclusion (IKBKAP gene, IVS20+6T>C mutation)
Assay: SPREADD reporter system for the IKBKAP splicing mutation (exon 20 skipping, IVS20+6T>C) in transfected HeLa cells, GFP/RFP ratio
Format: cell-based
Conditions: Homo sapiens, 24 h; HeLa cells transfected with SPREADD reporter construct; fluorescence measured one day later; IKBKAP-FD exon 20 inclusion rate by GFP/RFP ratio; %GFP of 20 pM 2-chloro-6-(2-furylmethyl)purine set to 100%
Description: A SPREADD reporter system for a splicing mutation of the IKBKAP gene in familial dysautonomia was prepared, as illustrated in FIG. 1. In this reporter system, GFP is expressed when the gene undergoes normal splicing, while RFP is expressed when the gene undergoes abnormal splicing (exon skipping).
HeLa cells transfected with the prepared SPREADD reporter construct were brought into contact with the compounds listed in Table 2 below and cultured (concentrations: 22.86237 nM, 68.58711 nM, 205.7613 nM, 617.284 nM, 1851.852 nM, 5555.556 nM, 16666.67 nM, or 50000 nM). One day later, fluorescence was measured using All-in-One Fluorescence Microscope BZ-X700 (Keyence Corp.), and the IKBKAP-FD exon 20 inclusion rate was quantified by the GFP/RFP ratio of the IKBKAP-FD reporter. […] The EC50 was determined with %GFP of 20 pM 2-chloro-6-(2-furylmethyl)purine set to 100%. Regression analysis for determining EC50 was performed using GraphPad Prism 7.05.

| EC50 [µM] | SMILES |
| --- | --- |
| 3.65 | CCOc1cc2nc(Cl)nc(NCc3ccco3)c2cc1OC [Example 33, 2-Chloro-7-ethoxy-N-(furan-2-ylmethyl)-6-methoxyquinazolin-4-amine] |
| 26.4 | COC(=O)COc1cc2c(NCc3ccco3)nc(Cl)nc2cc1OC [Example 30, Methyl ({2-chloro-4-[(furan-2-ylmethyl)amino]-7-methoxyquinazolin-6-yl}oxy)acetate] |
| 8.5 | COc1cc2nc(Cl)nc(NCc3ccco3)c2cc1OCCCN1CCOCC1 [Example 21, 2-Chloro-N-(furan-2-ylmethyl)-7-methoxy-6-[3-(morpholin-4-yl)propoxy]quinazolin-4-amine] |
| 6.41 | COC(=O)CCOc1cc2c(NCc3ccco3)nc(Cl)nc2cc1OC [Example 29, Methyl 3-({2-chloro-4-[(furan-2-ylmethyl)amino]-7-methoxyquinazolin-6-yl}oxy)propanoate] |
| 0.79 | COc1cc2nc(Cl)nc(NCc3ccco3)c2cc1OCCN(C)C [Example 25, 2-Chloro-6-[2-(dimethylamino)ethoxy]-N-(furan-2-ylmethyl)-7-methoxyquinazolin-4-amine] |
| 4.29 | CNCCOc1cc2nc(Cl)nc(NCc3ccco3)c2cc1OC [Example 32, 2-Chloro-N-(furan-2-ylmethyl)-6-methoxy-7-[2-(methylamino)ethoxy]quinazolin-4-amine] |
| 3.15 | COc1cc2c(NCc3ccco3)nc(Cl)nc2cc1OCCN [Example 31, 7-(2-Aminoethoxy)-2-chloro-N-(furan-2-ylmethyl)-6-methoxyquinazolin-4-amine] |
| 0.48 | CNCCOc1cc2c(NCc3ccco3)nc(Cl)nc2cc1OC [Example 24, 2-Chloro-N-(furan-2-ylmethyl)-7-methoxy-6-[2-(methylamino)ethoxy]quinazolin-4-amine] |
| 0.17 | COc1cc2nc(Cl)nc(NCc3ccco3)c2cc1OCC1COC1 [Example 19, 2-Chloro-N-(furan-2-ylmethyl)-7-methoxy-6-(oxetan-3-ylmethoxy)quinazolin-4-amine] |
| 8.34 | COc1cc2nc(Cl)nc(NCc3ccco3)c2cc1OCCN1CCOCC1 [Example 20, 2-Chloro-N-(furan-2-ylmethyl)-7-methoxy-6-[2-(morpholin-4-yl)ethoxy] quinazolin-4-amine] |
| 14.5 | COc1cc2nc(Cl)nc(NCc3ccco3)c2cc1OCCC1CS(=O)(=O)C1 [Example 22, 2-Chloro-6-[2-(1,1-dioxidothiethan-3-yl)ethoxy]-N-(furan-2-ylmethyl)-7-methoxyquinazolin-4-amine] |
| 0.82 | COc1cc2nc(Cl)nc(NCc3ccco3)c2cc1OCCO [Example 26, 2-({2-Chloro-4-[(furan-2-ylmethyl)amino]-7-methoxyquinazolin-6-yl}oxy)ethanol] |
| 0.53 | COc1cc2nc(Cl)nc(NCc3ccco3)c2cc1OCCN [Example 23, 6-(2-Aminoethoxy)-2-chloro-N-(furan-2-ylmethyl)-7-methoxyquinazolin-4-amine] |
| 2.02 | COc1cc2nc(Cl)nc(NCc3ccco3)c2cc1OCC1COCCO1 (stereo not drawn) [Example 27, 2-Chloro-6-(1,4-dioxan-2-ylmethoxy)-N-(furan-2-ylmethyl)-7-methoxyquinazolin-4-amine] |
| > 50 | COc1cc2nc(Cl)nc(NCc3ccco3)c2cc1OCCC(=O)O [Example 28, 3-({2-Chloro-4-[(furan-2-ylmethyl)amino]-7-methoxyquinazolin-6-yl}oxy)propanoic acid] |

The remaining lines, values behind:

| SMILES | EC50 [µM] |
| --- | --- |
| CCOc1cc2c(NCc3ccco3)nc(Cl)nc2cc1OC [Example 14, 2-Chloro-6-ethoxy-N-(furan-2-ylmethyl)-7-methoxyquinazolin-4-amine] | 1.37 |
| COc1cc2nc(Cl)nc(NCc3ccco3)c2cc1OC(C)C [Example 16, 2-Chloro-N-(furan-2-ylmethyl)-7-methoxy-6-(propan-2-yloxy)quinazolin-4-amine] | 2.49 |
| COc1cc2nc(Cl)nc(NCc3ccccn3)c2cc1OC [Example 9, 2-Chloro-6,7-dimethoxy-N-(pyridin-2-ylmethyl)quinazolin-4-amine] | 3.34 |
| COc1ccc2c(NCc3ccco3)nc(Cl)nc2c1 [Example 10, 2-Chloro-N-(furan-2-ylmethyl)-7-methoxyquinazolin-4-amine] | 2.9 |
| COc1cc2nc(Cl)nc(NCc3cc[nH]c3)c2cc1OC [Example 7, 2-Chloro-6,7-dimethoxy-N-(1H-pyrrol-3-ylmethyl) quinazolin-4-amine] | 21.9 |
| COc1cc2nc(Cl)nc(NCc3ncco3)c2cc1OC [Example 6, 2-Chloro-6,7-dimethoxy-N-(1,3-oxazol-2-ylmethyl)quinazolin-4-amine] | 5.7 |
| COc1ccc2nc(Cl)cc(NCc3ccco3)c2c1 [Example 13, 2-Chloro-N-(furan-2-ylmethyl)-6-methoxyquinolin-4-amine] | 4.39 |
| COc1cc2nc(Cl)nc(NCc3ccncc3)c2cc1OC [Example 5, 2-Chloro-6,7-dimethoxy-N-(pyridin-4-ylmethyl)quinazolin-4-amine] | 4.2 |
| COc1cc2nc(Cl)nc(NCc3nccs3)c2cc1OC [Example 4, 2-Chloro-6,7-dimethoxy-N-(1,3-thiazol-2-ylmethyl)quinazolin-4-amine] | 35.9 |
| COc1ccc2nc(Cl)nc(NCc3ccco3)c2c1 [Example 11, 2-Chloro-N-(furan-2-ylmethyl)-6-methoxyquinazolin-4-amine] | 8 |
| COCCOc1cc2c(NCc3ccco3)nc(Cl)nc2cc1OC [Example 17, 2-Chloro-N-(furan-2-ylmethyl)-7-methoxy-6-(2-methoxyethoxy)quinazolin-4-amine] | 3.06 |
| COc1cc2nc(Cl)nc(NCc3ccco3)c2cc1OCC1CC1 [Example 18, 2-Chloro-6-(cyclopropylmethoxy)-N-(furan-2-ylmethyl)-7-methoxyquinazolin-4-amine] | 1.6 |
| COc1cc2nc(Cl)nc(NCc3cccs3)c2cc1OC [Example 2, 2-Chloro-6,7-dimethoxy-N-(thiophen-2-ylmethyl)quinazolin-4-amine] | 2.12 |
| COc1cc2nc(Cl)nc(NCc3ccoc3)c2cc1OC [Example 8, 2-Chloro-N-(furan-3-ylmethyl)-6,7-dimethoxyquinazolin-4-amine] | 20 |
| CCCOc1cc2c(NCc3ccco3)nc(Cl)nc2cc1OC [Example 15, 2-Chloro-N-(furan-2-ylmethyl)-7-methoxy-6-propoxyquinazolin-4-amine] | 0.6 |
| COc1cc2nc(Cl)nc(NCc3ccco3)c2cc1OC [Example 1, 2-Chloro-N-(furan-2-ylmethyl)-6,7-dimethoxyquinazolin-4-amine] | 2.1 |
| COc1cc2nc(Cl)nc(NCc3ccsc3)c2cc1OC [Example 3, 2-Chloro-6,7-dimethoxy-N-(thiophen-3-ylmethyl)quinazolin-4-amine] | 2.82 |
| COc1ccc2c(NCc3ccco3)cc(Cl)nc2c1 [Example 12, 2-Chloro-N-(furan-2-ylmethyl)-7-methoxyquinolin-4-amine] | 1.08 |
